Laboratory results reported in the NIST ThermoML archive (doi:10.1021/je500395f).
± gives the expanded uncertainty stated by the source.

Conditions: Fluid (supercritical or subcritical phases), Coaxial cylinder method

CCC [propane]
Conditions | thermal conductivity [W/m/K]
371.05 K, 4555 kPa | 0.06855 ± 0.0027
371.05 K, 4560 kPa | 0.06824 ± 0.0026
371.05 K, 4590 kPa | 0.06782 ± 0.0026
371.05 K, 4715 kPa | 0.06718 ± 0.0026
371.05 K, 4720 kPa | 0.06705 ± 0.0026
371.05 K, 4840 kPa | 0.06668 ± 0.0026
371.05 K, 5000 kPa | 0.06707 ± 0.0026
371.05 K, 5200 kPa | 0.06747 ± 0.0026
371.05 K, 5350 kPa | 0.06773 ± 0.0026
371.05 K, 5672 kPa | 0.06829 ± 0.0027
371.05 K, 6100 kPa | 0.06917 ± 0.0027
371.05 K, 6200 kPa | 0.06927 ± 0.0027
371.05 K, 6800 kPa | 0.06996 ± 0.0027
371.05 K, 7500 kPa | 0.07147 ± 0.0027
371.05 K, 8500 kPa | 0.07339 ± 0.0028
371.05 K, 8900 kPa | 0.07424 ± 0.0028
371.05 K, 9500 kPa | 0.07498 ± 0.0029
371.05 K, 11600 kPa | 0.07756 ± 0.0029
371.97 K, 3025 kPa | 0.03301 ± 0.0015
371.97 K, 3070 kPa | 0.03313 ± 0.0015
371.97 K, 3701 kPa | 0.03655 ± 0.0016
371.97 K, 3803 kPa | 0.03783 ± 0.0017
371.97 K, 4286 kPa | 0.04983 ± 0.0021
371.97 K, 4294 kPa | 0.05055 ± 0.0021
371.97 K, 4312 kPa | 0.05267 ± 0.0023
371.97 K, 4324 kPa | 0.05459 ± 0.0024
371.97 K, 4336 kPa | 0.05724 ± 0.0027
371.97 K, 4342 kPa | 0.05915 ± 0.0028
371.97 K, 4348 kPa | 0.06124 ± 0.0028
371.97 K, 4354 kPa | 0.06361 ± 0.0027
371.97 K, 4362 kPa | 0.0676 ± 0.0028
371.97 K, 4366 kPa | 0.07025 ± 0.0029
371.97 K, 4368 kPa | 0.07149 ± 0.003
371.97 K, 4370 kPa | 0.07274 ± 0.003
371.97 K, 4374 kPa | 0.07488 ± 0.003
371.97 K, 4378 kPa | 0.07749 ± 0.0031
371.97 K, 4380 kPa | 0.07923 ± 0.0031
371.97 K, 4382 kPa | 0.07986 ± 0.0031
371.97 K, 4384 kPa | 0.08174 ± 0.0032
371.97 K, 4386 kPa | 0.08308 ± 0.0032
371.97 K, 4388 kPa | 0.08481 ± 0.0033
371.97 K, 4390 kPa | 0.08662 ± 0.0033
371.97 K, 4392 kPa | 0.08774 ± 0.0033
371.97 K, 4394 kPa | 0.08968 ± 0.0034
371.97 K, 4396 kPa | 0.09177 ± 0.0035
371.97 K, 4398 kPa | 0.09312 ± 0.0035
371.97 K, 4400 kPa | 0.09429 ± 0.0035
371.97 K, 4402 kPa | 0.09604 ± 0.0036
371.97 K, 4404 kPa | 0.09739 ± 0.0036
371.97 K, 4406 kPa | 0.09807 ± 0.0036
371.97 K, 4408 kPa | 0.09854 ± 0.0037
371.97 K, 4410 kPa | 0.09918 ± 0.0037
371.97 K, 4412 kPa | 0.09961 ± 0.0037
371.97 K, 4414 kPa | 0.09999 ± 0.0037
371.97 K, 4416 kPa | 0.1001 ± 0.0037
371.97 K, 4418 kPa | 0.1001 ± 0.0037
371.97 K, 4420 kPa | 0.09965 ± 0.0037
371.97 K, 4425 kPa | 0.09676 ± 0.0036
371.97 K, 4430 kPa | 0.09369 ± 0.0035
371.97 K, 4435 kPa | 0.09161 ± 0.0034
371.97 K, 4440 kPa | 0.08782 ± 0.0033
371.97 K, 4445 kPa | 0.08423 ± 0.0032
371.97 K, 4450 kPa | 0.08092 ± 0.0031
371.97 K, 4455 kPa | 0.07787 ± 0.003
371.97 K, 4460 kPa | 0.07642 ± 0.0029
371.97 K, 4465 kPa | 0.07505 ± 0.0029
371.97 K, 4475 kPa | 0.07322 ± 0.0028
371.97 K, 4490 kPa | 0.07226 ± 0.0028
371.97 K, 4500 kPa | 0.07021 ± 0.0027
371.97 K, 4505 kPa | 0.06997 ± 0.0027
371.97 K, 4530 kPa | 0.06877 ± 0.0027
371.97 K, 4550 kPa | 0.06759 ± 0.0026
371.97 K, 4570 kPa | 0.06665 ± 0.0026
371.97 K, 4650 kPa | 0.06636 ± 0.0026
371.97 K, 4740 kPa | 0.06618 ± 0.0026
371.97 K, 4850 kPa | 0.06602 ± 0.0026
371.97 K, 5200 kPa | 0.06643 ± 0.0026
371.97 K, 5900 kPa | 0.06801 ± 0.0026
371.97 K, 6400 kPa | 0.06923 ± 0.0027
371.97 K, 6800 kPa | 0.07002 ± 0.0027
371.97 K, 7600 kPa | 0.07152 ± 0.0027
371.97 K, 8810 kPa | 0.07269 ± 0.0028
371.97 K, 15100 kPa | 0.08067 ± 0.0031
373.2 K, 3103 kPa | 0.03319 ± 0.0015
373.2 K, 3450 kPa | 0.03488 ± 0.0016
373.2 K, 3780 kPa | 0.03746 ± 0.0017
373.2 K, 3820 kPa | 0.03788 ± 0.0017
373.2 K, 4030 kPa | 0.04085 ± 0.0018
373.2 K, 4060 kPa | 0.04149 ± 0.0018
373.2 K, 4150 kPa | 0.04361 ± 0.0019
373.2 K, 4230 kPa | 0.04611 ± 0.0019
373.2 K, 4270 kPa | 0.04756 ± 0.002
373.2 K, 4346 kPa | 0.05156 ± 0.0021
373.2 K, 4384 kPa | 0.05498 ± 0.0023
373.2 K, 4404 kPa | 0.05788 ± 0.0026
373.2 K, 4416 kPa | 0.05996 ± 0.0026
373.2 K, 4428 kPa | 0.0626 ± 0.0026
373.2 K, 4436 kPa | 0.06499 ± 0.0027
373.2 K, 4444 kPa | 0.06754 ± 0.0027
373.2 K, 4450 kPa | 0.06964 ± 0.0028
373.2 K, 4452 kPa | 0.07037 ± 0.0028
373.2 K, 4462 kPa | 0.07388 ± 0.0029
373.2 K, 4466 kPa | 0.07545 ± 0.0029
373.2 K, 4470 kPa | 0.07719 ± 0.003
373.2 K, 4476 kPa | 0.07958 ± 0.003
373.2 K, 4482 kPa | 0.08175 ± 0.0031
373.2 K, 4484 kPa | 0.0824 ± 0.0031
373.2 K, 4486 kPa | 0.08306 ± 0.0031
373.2 K, 4494 kPa | 0.08512 ± 0.0032
373.2 K, 4496 kPa | 0.08547 ± 0.0032
373.2 K, 4498 kPa | 0.08584 ± 0.0032
373.2 K, 4500 kPa | 0.0862 ± 0.0032
373.2 K, 4502 kPa | 0.08638 ± 0.0032
373.2 K, 4504 kPa | 0.08656 ± 0.0032
373.2 K, 4506 kPa | 0.08685 ± 0.0032
373.2 K, 4508 kPa | 0.08693 ± 0.0032
373.2 K, 4510 kPa | 0.0873 ± 0.0033
373.2 K, 4518 kPa | 0.08768 ± 0.0033
373.2 K, 4524 kPa | 0.08658 ± 0.0032
373.2 K, 4530 kPa | 0.08552 ± 0.0032
373.2 K, 4536 kPa | 0.08417 ± 0.0032
373.2 K, 4544 kPa | 0.08185 ± 0.0031
373.2 K, 4550 kPa | 0.07994 ± 0.003
373.2 K, 4556 kPa | 0.07815 ± 0.003
373.2 K, 4564 kPa | 0.07643 ± 0.0029
373.2 K, 4568 kPa | 0.07532 ± 0.0029
